Consider ten compounds from patent publication US9079854B2 (priority 2007, dated 2015).

Read-outs that look alike come from different tables or passages of the source.

The target of assay [1] is T1, human CB1 (hCB1) receptor (Homo sapiens, UniProt P21554).
T1 construct: expressed in transfected cells; host or cells: CHO (Chinese hamster ovary) cells, membranes
Nature of the assay: CB1 binding assay, competitive binding of [3H]CP 55940. Also noted: % Inhibition of Control Specific Binding CB1: concentration or dose not given beside the values. The conditions noted are these: for inhibition at 10 µM / inhibition at 1 µM: specific binding of [3H]-CP55940; for inhibition at 1 µM: CHO membranes. As to the method:
Cell membrane homogenates (25 μg protein) are incubated for 120 min at 37° C. with 0.5 nM [^3H]CP 55940 (the reference standard [Rinaldi-Carmona, 1996 #1320]) in the absence or presence of the test compound in a buffer containing 50 mM Tris HCl (pH 7.4), 5 mM MgCl2, 2.5 mM EDTA, and 0.3% bovine serum albumin (BSA). […]
(§1) […] [^3H]-CP55940 at a concentration of 0.5 nM and [^3H]-WIN55212 at a concentration of 0.8 nM were used as radioligands for hCB1 and hCB2 assays, respectively. The results are expressed as a percent inhibition of control specific binding. Compounds which displaced the radioligand by more than 50% for either hCB1 or hCB2 receptors were arbitrary chosen for functional activity determination.

For assay [2], the target named is CB1 (Homo sapiens, UniProt P21554). Nature of the assay: CB1 functional assay, [35S]GTP-γ-S binding. In kind it is biochemical. Also noted: purchased ES-110-MG; host or cells: CHO membrane extracts. The conditions noted are these: for Emax at 3 µM: read-out: [35S]GTP-γ-S hCB1 Emax (%), Table 9 footnote a: Efficacy determined at 3 μM, relative to CP 55,940. As to the method: (§2) A dose response curve was generated at eight concentrations in duplicate on CB1 and CB2 in light of reference agonists.
Chain of CB1 (P21554 whole entry): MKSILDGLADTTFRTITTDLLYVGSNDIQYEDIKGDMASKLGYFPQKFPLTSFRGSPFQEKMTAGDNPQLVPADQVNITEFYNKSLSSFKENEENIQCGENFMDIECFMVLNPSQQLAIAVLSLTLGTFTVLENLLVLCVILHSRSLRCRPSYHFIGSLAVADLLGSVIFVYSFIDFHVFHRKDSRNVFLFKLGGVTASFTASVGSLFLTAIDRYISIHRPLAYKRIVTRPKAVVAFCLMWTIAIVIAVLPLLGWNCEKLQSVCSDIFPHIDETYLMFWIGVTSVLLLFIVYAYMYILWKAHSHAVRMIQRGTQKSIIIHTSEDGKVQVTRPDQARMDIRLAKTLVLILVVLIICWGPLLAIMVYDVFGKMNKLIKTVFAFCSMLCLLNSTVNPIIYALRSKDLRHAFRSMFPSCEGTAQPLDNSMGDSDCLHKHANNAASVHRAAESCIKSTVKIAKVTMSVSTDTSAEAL
(§3) Membranes (CB1, ES-110-MG or CB2, ES-111-MG) are mixed with GDP (volume:volume) and incubated for at least […] on ice. In parallel, […] are mixed with the beads (volume:volume) just before starting the reaction. The following reagents are successively added in the wells of an Optiplate: 50 μl of ligand, 20 μl of the membranes:GDP mix, 10 μl of assay buffer for agonist testing and 20 μl of the […]: beads mix. The plates are covered with a topseal, shaken on an orbital shaker for 2 min, and then incubated between 30 to 60 min at room temperature. Then the plates are centrifuged for 10 min at 2000 rpm, incubated at room temperature between 1 to 4 hours and counted for 1 min with a PerkinElmer TopCount reader.
(§4) Functional activity for acyl hydrazone was evaluated using [^35S]GTP-γ-S assay in CHO membrane extracts expressing recombinant hCB1 receptor or hCB2 receptor. The assay relies on the binding of [^35S]GTP-γ-S, a radiolabeled nonhydrolyzable GTP analogue, to the G protein upon binding of an agonist of the G-protein-coupled receptor. In this system, agonists stimulate [^35S]GTP-γ-S binding whereas neutral antagonist have no effect and inverse agonists decrease [^35S]GTP-γ-S basal binding.
(§5) CB1 and CB2 assay data are presented as the mean of two determinations. […] For replicate determinations, the maximum variability tolerated in the test was of ±20% around the average of the replicates.
For orientation: GTPγS is a poorly hydrolysed GTP analogue; its binding reports G protein activation.

In assay [3] the target is T2, human CB2 (hCB2) receptor (Homo sapiens, UniProt P34972).
T2 construct: expressed in transfected cells; host or cells: CHO (Chinese hamster ovary) cells, membranes
T2 sequence (P34972 whole entry): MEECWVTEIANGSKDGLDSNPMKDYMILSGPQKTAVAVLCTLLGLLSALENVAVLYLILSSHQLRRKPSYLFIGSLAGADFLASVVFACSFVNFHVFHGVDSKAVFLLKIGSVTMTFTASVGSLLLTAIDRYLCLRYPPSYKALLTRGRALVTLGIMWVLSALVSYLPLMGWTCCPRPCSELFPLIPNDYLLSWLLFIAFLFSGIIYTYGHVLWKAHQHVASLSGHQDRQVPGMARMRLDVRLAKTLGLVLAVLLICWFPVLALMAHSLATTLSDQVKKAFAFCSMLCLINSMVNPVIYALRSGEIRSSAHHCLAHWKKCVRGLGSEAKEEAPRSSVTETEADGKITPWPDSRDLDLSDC
Nature of the assay: CB2 binding assay, competitive binding of [3H]WIN 55212-2. Conditions: for inhibition at 10 µM: read-out: % inhibition hCB2 receptor, at 10 μM; for inhibition at 10 µM / inhibition at 1 µM: specific binding of [3H]-WIN55212-2; for inhibition at 1 µM: read-out: % inhibition hCB2 receptor, at 1 μM, CHO membranes. As to the method:
Cell membrane homogenates (15 μg protein) are incubated for 120 min at 37° C. with 0.8 nM [^3H]WIN 55212-2 (the reference standard [Munro, 1993 #1321]) in the absence or presence of the test compound in a buffer containing 50 mM HEPES/Tris HCL (pH 7.4), 5 mM MgCl2, 2.5 mM EGTA, and 0.1% BSA. Nonspecific binding is determined in the presence of 10 μM WIN 55212-2. After being incubated, the samples are filtered rapidly under vacuum through glass fiber filters (GF/B; Packard) presoaked with 0.3% PEI and rinsed several times with ice-cold buffer containing 50 mM Tris HCl (pH 7.4) and 0.5% BSA using a 96-sample cell harvester (Unifilter; Packard). The filters are dried then counted for radioactivity in a scintillation counter (Topcount; Packard) using a scintillation cocktail (Microscint 0; Packard). The results are expressed as a percentage of the inhibition of the control radioligand-specific binding. The reference standard compounds are tested in each experiment at several concentrations to obtain a competition curve from which its IC50 is calculated.
as §1

Assay [4] deals with T3, hCB2 receptor (Homo sapiens, UniProt P34972).
T3 construct: purchased ES-111-MG; host or cells: CHO membrane extracts
T3 sequence (P34972 whole entry): as above
Nature of the assay: CB2 functional assay, [35S]GTP-γ-S binding. In kind it is biochemical. As to the method:
as §2, §3, §4, §5

The mark [5] stands for this setting: Table 7, mean of two determinations, read-out: [35S]GTP-γ-S (hCB1) EC50 (nM ± SEM).
Setting [6] is: Table 7, relative to the efficacy of CP55940.
[7] abbreviates: Table 9, mean of two determinations, read-out: [35S]GTP-γ-S hCB2 EC50 (nM ± SEM).
The mark [8] stands for this setting: Table 9, relative to the efficacy of CP 55,940.
Where [9] appears, read: Table 9, mean of two determinations, read-out: [35S]GTP-γ-S hCB1 EC50 (nM ± SEM).

By inhibition is commonly meant the percentage by which the read-out fell short of the control. A word on the EC50: it is the midpoint of the concentration-response curve. As usually defined, the Emax is the maximal effect, on the per cent scale that the assay sets.

T1 sequence (P21554 whole entry): as the sequence (P21554 whole entry) above

For `CCCCCCN1C(=O)/C(=N\NC(=O)Cc2ccccc2)c2ccccc21` [Example 7, Phenylacetic acid [1-n-hexyl-2-oxo-1,2-dihydro-indol-3-ylidene]-hydrazide], the “% Inhibition of Control Specific Binding” value was found to be 98% in assay [1] (CB1, Test Concentration 1.0E−05 (MD)) and 92% in assay [3] (CB2, Test Concentration 1.0E−05 (MD)). Further, the “% of Control Specific Binding 1st” value in assay [1] (CB1, Test Concentration 1.0E−05 (MD), 1st determination) came to 0.9%; in assay [3] (CB2, Test Concentration 1.0E−05 (MD), 1st determination), 8.4%. The “% of Control Specific Binding 2nd” value in assay [1] (CB1, Test Concentration 1.0E−05 (MD), 2nd determination) amounted to 2.6%; in assay [3] (CB2, Test Concentration 1.0E−05 (MD), 2nd determination) it was 8.5%. Besides, the “% of Control Specific Binding Mean” value is listed as 1.8% in assay [1] (CB1, Test Concentration 1.0E−05 (MD), mean) and 8.5% in assay [3] (CB2, Test Concentration 1.0E−05 (MD), mean). Further, the “% Inhibition of Control Specific Binding CB1” value in assay [1] (Table 3, concentration not given) came out at 98%. Besides, the values for the inhibition at 10 µM in assay [1] and in assay [3] were 98.2 ± 0.8% and 91.5 ± 0.1%, respectively. Further, the “% Activation Average” value is 71.88% in assay [2] (CB1 Functional Activity) and 45.79% in assay [4] (CB2 Functional Activity). For the same compound, the “Compound Activity” value in assay [2] (CB1 Functional Activity) and in assay [4] (CB2 Functional Activity) was “Agonist” each time. Further, the EC50 in assay [2] (CB1 Functional Activity, read-out: EC50 (nM) for GTP Binding) came out at 459 nM; in assay [2] (setting [5]), 459 ± 1.1 nM; in assay [4] (CB2 Functional Activity, read-out: EC50 (nM) for GTP Binding) it was 189 nM; in assay [4] (Table 7, mean of two determinations, read-out: [35S]GTP-γ-S (hCB2) EC50 (nM ± SEM)) it was 188.7 ± 1.3 nM. In addition, the values for the Emax in assay [2] (setting [6]) and in assay [4] (setting [6]) were 71.9% and 45.8%, respectively. For the same compound, the “% Inhibition of Control Specific Binding CB2” value in assay [3] (Table 4, concentration not given) is on record as 92%.

In the case of `O=C(Cc1ccccc1)N/N=C1\C(=O)N(CCC2CCCCC2)c2ccccc21` [Example 10, N′-[1-(2-cyclohexylethyl)-2-oxo-1,2-dihydro-3H-indol-3-ylidene]-2-phenylacetohydrazide], the inhibition at 10 µM in assay [1] came out at 88.8 ± 0.6%; in assay [3], 47.2 ± 7.7%. Moreover, the EC50 in assay [2] (setting [5]) is 1238.8 ± 1.2 nM. Moreover, the Emax was 75% in assay [2] (setting [6]) and 21% in assay [4] (setting [6]).

`CCCCCCN1C(=O)/C(=N\NC(=O)C2CCCCC2)c2ccccc21` [Example 11, N′-[(3Z)-1-hexyl-2-oxo-1,2-dihydro-3H-indol-3-ylidene]cyclohexanecarbohydrazide]: the inhibition at 1 µM in assay [1] turned out to be 65.8 ± 0.2%; in assay [3], 61 ± 2.1%. Besides, in assay [2], the Emax at 3 µM came out at 40.9%. Also, the EC50 in assay [4] (setting [7]) was 79.1 ± 1.5 nM. Also, the Emax in assay [4] (setting [8]) worked out at 58%.

`CCCCCCN1C(=O)/C(=N\NC(=O)OC(C)(C)C)c2ccccc21` [Example 14, tert-butyl (2Z)-2-(1-hexyl-2-oxo-1,2-dihydro-3H-indol-3-ylidene)hydrazinecarboxylate]: the inhibition at 1 µM in assay [1] worked out at 85.1 ± 3.3%; in assay [3], 82.3 ± 0.8%. Besides, the EC50 was 937.1 ± 1.2 nM in assay [2] (setting [9]) and 22.4 ± 1.3 nM in assay [4] (setting [7]). Further, the maximum response (Emax) in assay [2] (setting [8]) is 92%; in assay [4] (setting [8]) it was 43.4%.

`CCCCCCN1C(=O)/C(=N/NC(=O)OC(C)(C)C)c2ccccc21` [Example 15, tert-butyl (2E)-2-(1-hexyl-2-oxo-1,2-dihydro-3H-indol-3-ylidene)hydrazinecarboxylate]: the inhibition at 1 µM in assay [1] is 75 ± 0.1%; in assay [3], 27 ± 3.7%. For the same compound, in assay [2] ([35S]GTP-γ-S), the “functional activity on CB1 receptor (in words)” value is listed as “failed to exhibited functional activity”. For the same compound, the “functional activity on CB2 receptor (in words)” value in assay [4] ([35S]GTP-γ-S) is reported as “failed to exhibited functional activity”. In addition, the Emax at 3 µM in assay [4] (read-out: [35S]GTP-γ-S hCB2 Emax (%), Table 9 footnote a: Efficacy determined at 3 μM, relative to CP 55,940) came out at 23.4%.

In the case of `CCCCCCN1C(=O)/C(=N\NC(=O)c2ccc(OC)cc2)c2ccccc21` [Example 17, N′-[(3Z)-1-hexyl-2-oxo-1,2-dihydro-3H-indol-3-ylidene]-4-methoxybenzohydrazide], the results for the inhibition at 1 µM in assay [1] and in assay [3] were 81.7 ± 1.1% and 56 ± 5.7%, respectively. Besides, the EC50 worked out at 852 ± 1.2 nM in assay [2] (setting [9]) and 143 ± 2.6 nM in assay [4] (setting [7]). The Emax came out at 71% in assay [2] (setting [8]) and 49.5% in assay [4] (setting [8]).

On to `CCCCN1C(=O)/C(=N\NC(=O)c2ccccc2)c2ccccc21` [Example 22, N′-[(3Z)-1-(1-butyl)-2-oxo-1,2-dihydro-3H-indol-3-ylidene]benzohydrazide], for which the values for the inhibition at 1 µM in assay [1] and in assay [3] were 86 ± 2.4% and 70 ± 2.4%, respectively. Further, the Emax at 3 µM in assay [2] was 69%. The EC50 in assay [4] (setting [7]) was determined as 40.1 ± 1.5 nM. This compound also came in with an Emax in assay [4] (setting [8]) of 98.9%.

Turning to `CCCCCN1C(=O)/C(=N\NC(=O)c2ccccc2)c2ccccc21` [Example 23, N′-[(3Z)-1-(1-pentyl)-2-oxo-1,2-dihydro-3H-indol-3-ylidene]benzohydrazide], the inhibition at 1 µM in assay [1] is 95 ± 0.9%; in assay [3], 80 ± 0.9%. Moreover, the EC50 in assay [2] (setting [9]) was 314.1 ± 1.6 nM; in assay [4] (setting [7]) it was 240 ± 3.2 nM. The values for the Emax in assay [2] (setting [8]) and in assay [4] (setting [8]) were 95.1% and 68.5%, respectively.

Consider `O=C(N/N=C1\C(=O)N(CC2CCCCC2)c2ccccc21)c1ccccc1` [Example 25, N′-[(3Z)-1-(cyclohexylmethyl)-2-oxo-1,2-dihydro-3H-indol-3-ylidene]benzohydrazide], for which the inhibition at 1 µM in assay [1] is 99 ± 1.1%; in assay [3] it was 100 ± 0.4%. Further, the EC50 in assay [2] (setting [9]) is 62.3 ± 1.3 nM; in assay [4] (setting [7]) it was 9.8 ± 1.1 nM. In addition, the results for the Emax in assay [2] (setting [8]) and in assay [4] (setting [8]) were 99% and 65.7%, respectively.

Consider `O=C(N/N=C1\C(=O)N(Cc2ccc(Cl)cc2)c2ccccc21)c1ccccc1` [Example 26, N′-[(3Z)-1-(4-chlorobenzyl)-2-oxo-1,2-dihydro-3H-indol-3-ylidene]benzohydrazide], for which the inhibition at 1 µM worked out at 94.5 ± 0.8% in assay [1] and 22 ± 1.6% in assay [3]. In addition, the EC50 in assay [2] (setting [9]) worked out at 895.6 ± 1.2 nM; in assay [4] (setting [7]) it was 131 ± 1.7 nM. Also, the maximal effect (Emax) was determined as 72% in assay [2] (setting [8]) and 39.8% in assay [4] (setting [8]).
